We go through 21 compounds from ChEMBL document CHEMBL1914447, “Novel orally active antimalarial thiazoles” (J Med Chem, 2011).

Data set [1] in a line: Kinetic solubility of the compound by nephelometry at pH 6.5. It counts as physicochemical. Conditions: buffer, read-out: Kinetic_solubility.
In a further data set the test system is Liver. Briefly: Metabolic stability in mouse liver microsomes at 1 uM by LC-MS analysis. The class given is ADME, Microsome. On the technique in general: Liver microsomes are vesicles of endoplasmic reticulum, rich in cytochrome P450 enzymes.
For data set [2], the system named is Liver microsomes. Briefly: Metabolic stability in rat liver microsomes at 1 uM by LC-MS analysis. It counts as ADME, Microsome.
A short description of data set [3]: Kinetic solubility of the compound by nephelometry at pH 2.0. The class given is physicochemical. Conditions: buffer, read-out: Kinetic_solubility.
The subject of data set [4] is Plasmodium falciparum. As to the kind of experiment: microbe, parasite or virus in culture. Conditions: K1.
Data set [5] deals with Liver microsomes. As to the kind of experiment: Metabolic stability in human liver microsomes at 1 uM by LC-MS analysis. It counts as ADME, Microsome.
Data set [6] deals with Plasmodium falciparum. As to the kind of experiment: microbe, parasite or virus in culture. The settings on record: NF54.
Data set [7] is described as follows: Lipophilicity, log D of the compound by gradient HPLC at pH 7.4. It counts as physicochemical. Conditions: buffer.
A short description of data set [8]: Lipophilicity, log D of the compound by gradient HPLC at pH 3.0. Conditions: buffer. The class given is physicochemical.

SMILES strings stand for the structures. Converted amounts (≈) assume the structure as drawn. Where only a bound is given, the exact number is not on record here.

As usually defined, the IC50 is the concentration at which inhibition is half-maximal. The low end stands for inhibition by little substance, the high end for a need for much substance. What is called chromatographic logD is lipophilicity estimated from chromatographic retention. For the compound `CC(C)(C)c1cc(C(=O)Nc2ccccc2)n(Cc2ccccc2)n1`, the solubility kinetic in data set [1] and in data set [3] was 1.6 µg/mL (≈ 4.8 µM) in each case. Also, the Stability result with Liver, with Liver microsomes [2] and with Liver microsomes [5] was “Unstable” each time. Further, the IC50 is 11 µM in the data set with Plasmodium falciparum [4] and 7.92 µM in the data set with Plasmodium falciparum [6]. Moreover, the chromatographic logD in [7] and in data set [8] was 4.7 throughout.

Turning to `CC(C)(C)c1cc(C(=O)Nc2cccc(CN)c2)n(Cc2ccccc2)n1`, the results for the solubility kinetic in data set [1] and in [3] were 25 µg/mL (≈ 69 µM) and above 100 µg/mL, respectively. Also, the Stability entry in the data set with Liver, in the data set with Liver microsomes [2] and in the data set with Liver microsomes [5] was “Stable” each time. The IC50 with Plasmodium falciparum [4] was 1.47 µM; in the data set on Plasmodium falciparum [6] it was 2.15 µM. Moreover, the chromatographic logD in [7] is 2.9; in data set [8], 2.2.

Take `NCc1csc(NC(=O)c2ccon2)n1`: the solubility kinetic in [1] and in data set [3] was 50 µg/mL (≈ 223 µM) in each case. Moreover, the IC50 with Plasmodium falciparum [4] and with Plasmodium falciparum [6] was above 44.6 µM in each case. For the same compound, the chromatographic logD is -0.1 in [7] and 0 in data set [8].

As for `NCc1csc(NC(=O)c2cc3ccccc3[nH]2)n1`, the figures for the solubility kinetic in data set [1] and in [3] were 25 µg/mL (≈ 91.8 µM) and above 100 µg/mL, respectively. The IC50 with Plasmodium falciparum [4] worked out at 22.2 µM; in the data set on Plasmodium falciparum [6], 30.4 µM. Moreover, the results for the chromatographic logD in [7] and in [8] were 1.4 and 1.1, respectively.

In the case of `NCc1csc(NC(=O)c2ccn[nH]2)n1`, the solubility kinetic in data set [1] and in [3] was above 100 µg/mL throughout. The IC50 with Plasmodium falciparum [4] and in the data set on Plasmodium falciparum [6] was above 44.8 µM throughout. Moreover, the chromatographic logD in [7] came to 0.1; in [8], 0.

As to `NCc1csc(NC(=O)c2ccc(Cl)cc2)n1`, the solubility kinetic in [1] is 25 µg/mL (≈ 93.4 µM); in data set [3], above 100 µg/mL. For the same compound, the IC50 in the data set on Plasmodium falciparum [4] is 37.5 µM; in the data set with Plasmodium falciparum [6], above 37.5 µM. The figures for the chromatographic logD in [7] and in data set [8] were 1.6 and 1.2, respectively.

`CC(C)(C)c1cc(C(=O)Nc2cccnc2)n(Cc2ccccc2)n1`: the solubility kinetic in data set [1] was 6.3 µg/mL (≈ 18.8 µM); in data set [3], above 100 µg/mL. Moreover, the Stability result with Liver, in the data set on Liver microsomes [2] and with Liver microsomes [5] was “Unstable” each time. Further, the IC50 in the data set with Plasmodium falciparum [4] was determined as 6.45 µM; with Plasmodium falciparum [6], 4.99 µM. For the same compound, the figures for the chromatographic logD in [7] and in data set [8] were 3.8 and 3.5, respectively.

Take `NCc1csc(NC(=O)c2ccccn2)n1`: the solubility kinetic in data set [1] and in data set [3] was above 100 µg/mL in each case. In addition, the IC50 in the data set on Plasmodium falciparum [4] and with Plasmodium falciparum [6] was above 42.7 µM throughout. The values for the chromatographic logD in data set [7] and in [8] were 0.7 and 0.3, respectively.

In the case of `CC(C)(C)c1cc(C(=O)Nc2ccncc2)n(Cc2ccccc2)n1`, the results for the solubility kinetic in data set [1] and in data set [3] were 6.3 µg/mL (≈ 18.8 µM) and above 100 µg/mL, respectively. Also, the Stability result in the data set on Liver, with Liver microsomes [2] and with Liver microsomes [5] was “Unstable” in each case. Also, the IC50 in the data set on Plasmodium falciparum [4] was found to be 7.05 µM; with Plasmodium falciparum [6] it was 3.88 µM. For the same compound, the figures for the chromatographic logD in data set [7] and in data set [8] were 4 and 2.6, respectively.

Regarding `CC(C)(C)c1cc(C(=O)Nc2nc(CO)cs2)n(Cc2ccccc2)n1`, the results for the solubility kinetic in [1] and in data set [3] were 3.1 µg/mL (≈ 8.37 µM) and 12.5 µg/mL (≈ 33.7 µM), respectively. The Stability entry in the data set with Liver, in the data set with Liver microsomes [2] and in the data set on Liver microsomes [5] was “Unstable” in each case. For the same compound, the IC50 in the data set on Plasmodium falciparum [4] was found to be 0.67 µM; in the data set with Plasmodium falciparum [6], 0.71 µM. Further, the figures for the chromatographic logD in data set [7] and in [8] were 3.4 and 3.5, respectively.

In the case of `Cn1nc(C(C)(C)C)cc1C(=O)Nc1nc(CN)cs1`, the solubility kinetic was 50 µg/mL (≈ 170 µM) in data set [1] and above 100 µg/mL in data set [3]. For the same compound, the figures for the half-inhibitory concentration (IC50) in the data set with Plasmodium falciparum [4] and in the data set on Plasmodium falciparum [6] were 34.1 µM and above 34.1 µM, respectively. In addition, the chromatographic logD in data set [7] was determined as 1.6; in [8], 1.2.

As for `NCc1csc(NC(=O)c2cc3ccccc3o2)n1`, the solubility kinetic in data set [1] was 50 µg/mL (≈ 183 µM); in data set [3], above 100 µg/mL. Further, the IC50 with Plasmodium falciparum [4] was 36.6 µM; in the data set on Plasmodium falciparum [6] it was above 36.6 µM. Moreover, the figures for the chromatographic logD in data set [7] and in data set [8] were 1.5 and 1.1, respectively.

Consider `NCc1csc(NC(=O)c2cnnn2Cc2ccccc2)n1`, for which the solubility kinetic is 50 µg/mL (≈ 159 µM) in data set [1] and above 100 µg/mL in [3]. The IC50 with Plasmodium falciparum [4] and in the data set with Plasmodium falciparum [6] was above 3.18 µM in each case. The chromatographic logD in [7] is 1.6; in data set [8], 1.3.

On to `NCc1csc(NC(=O)c2cn(Cc3ccccc3)nn2)n1`, for which the solubility kinetic in data set [1] came out at 25 µg/mL (≈ 79.5 µM); in [3], 50 µg/mL (≈ 159 µM). The IC50 in the data set on Plasmodium falciparum [4] and in the data set with Plasmodium falciparum [6] was above 3.18 µM throughout. Further, the results for the chromatographic logD in [7] and in data set [8] were 1.4 and 1.1, respectively.

Consider `COc1ccc(C(=O)Nc2nc(CN)cs2)cc1`, for which the solubility kinetic in [1] was found to be 25 µg/mL (≈ 94.9 µM); in data set [3] it was 50 µg/mL (≈ 190 µM). Moreover, the IC50 was found to be 11.1 µM in the data set on Plasmodium falciparum [4] and 13.1 µM in the data set with Plasmodium falciparum [6]. Besides, the chromatographic logD in data set [7] was determined as 1.2; in data set [8], 0.9.

As to `C[C@H]1[C@H](OC(=O)CCC(=O)O)O[C@@H]2O[C@@]3(C)CC[C@H]4[C@H](C)CC[C@@H]1[C@@]24OO3` [ARTESUNATE], the values for the IC50 in the data set on Plasmodium falciparum [4] and in the data set with Plasmodium falciparum [6] were 0.003 µM and 0.004 µM, respectively.

Regarding `NCc1csc(NC(=O)c2ncccn2)n1`, the solubility kinetic in data set [1] and in data set [3] was above 100 µg/mL each time. Further, the IC50 in the data set with Plasmodium falciparum [4] and in the data set with Plasmodium falciparum [6] was above 42.5 µM each time. Also, the chromatographic logD in data set [7] is -0.1; in data set [8], -0.2.

`NCc1csc(NC(=O)c2cccnn2)n1`: the results for the solubility kinetic in data set [1] and in data set [3] were 50 µg/mL (≈ 213 µM) and above 100 µg/mL, respectively. Also, the IC50 was 42.5 µM in the data set with Plasmodium falciparum [4] and above 42.5 µM with Plasmodium falciparum [6]. The values for the chromatographic logD in data set [7] and in data set [8] were 0.2 and 0, respectively.

On to `NCc1csc(NC(=O)c2ccccc2)n1`, for which the solubility kinetic in [1] was 25 µg/mL (≈ 107 µM); in data set [3] it was above 100 µg/mL. In addition, the figures for the IC50 with Plasmodium falciparum [4] and in the data set with Plasmodium falciparum [6] were 42.9 µM and above 42.9 µM, respectively. In addition, the chromatographic logD is 1 in [7] and 0.7 in data set [8].

Turning to `NCc1csc(NC(=O)c2cc3ccccc3n2Cc2ccccc2)n1`, the solubility kinetic was found to be 1.6 µg/mL (≈ 4.41 µM) in [1] and 25 µg/mL (≈ 69 µM) in [3]. The IC50 was determined as 6.98 µM in the data set on Plasmodium falciparum [4] and 10.3 µM with Plasmodium falciparum [6]. The chromatographic logD in data set [7] was found to be 3; in [8], 2.4.

For the compound `NCc1csc(NC(=O)c2cnn[nH]2)n1`, the solubility kinetic in data set [1] and in data set [3] was above 100 µg/mL each time. Further, the IC50 with Plasmodium falciparum [4] and with Plasmodium falciparum [6] was above 44.6 µM in each case. For the same compound, the chromatographic logD in data set [7] is -0.3; in data set [8], -0.2.
